What was measured:
[1] = test system: AUD; settings: multisite AUD clinical trial; cited from earlier work
[2] = cited from earlier work
[3] = test system: non-treatment-seeking AUD individuals; assay: Adverse effects, physical symptom checklist; format: in vivo, human; settings: for Number of subjects with insomnia severity Mild / Number of subjects with insomnia severity Moderate / Number of subjects with insomnia severity None / Number of subjects with insomnia severity Severe: APZ group
Description: Adverse effects. A physical symptom checklist was used to assess the presence and severity (self-rated as none, mild, moderate, or severe) of 21 possible adverse effects at baseline and on day 8 immediately before the bar-lab paradigm.
For the secondary outcome (adverse effect severity), the GLM was first used to evaluate the main effect of medication on the presence/absence of each effect. […] To account for the influence of these effects on the pharmacogenetic interactions evaluated above, the presence/absence of each was evaluated as a covariate in all models.

[4] = test system: non-treatment-seeking AUD individuals; assay: fMRI alcohol cue-reactivity task (alcohol cue-elicited ventral striatal activation); format: in vivo, human; set-up: VS Activation: effect size of interaction medication x genotype permutation: scale not given here; settings: for Alcohol cue-elicited VS activation (ALC vs. BEV percent signal change): APZ relative to placebo, day 7; for VS Activation: effect size of interaction medication x genotype permutation: n = 81
Description: (§1) The study was an eight-day sub-acute dosing human laboratory investigation (ClinicalTrials.gov identifier: NCT01292057). After randomization to study medication, subjects underwent an fMRI alcohol cue-reactivity task on day 7 of medication ingestion and a bar-lab paradigm on day 8. To maximize cue-reactivity and motivation to drink, they were instructed to abstain from alcohol on the evenings of days 6 and 7.
(§2) Randomization and medication. […] Subjects and investigators were blind to both genotype and medication assignment. Thus, subjects were stratified by their baseline Barratt Impulsiveness Scale (BIS-11) score (Patton et al., 1995) into groups with BIS-11 scores greater vs. less than the median score of 68 and randomization was conducted separately within each stratum. Urn variables balanced across medication groups within each stratum were sex and smoking status.
Neuroimaging. On day 7, subjects were breathalyzed, assessed for alcohol withdrawal, and re-administered the OCDS. As noted above, one subject with a BAC>0 and two subjects with Clinical Institute Withdrawal Assessment for Alcohol-Revised scores >4 were excluded from scanning. After acquisition of a high-resolution anatomical image, subjects were given a sip (10 ml) of their preferred 80-proof liquor mixed with fruit juice and administered a 12-m-long task during which they passively viewed pseudo-randomly interspersed blocks of alcoholic beverage images (ALC; equally distributed between beer, wine, and liquor), nonalcoholic beverage images (BEV), blurred versions of these images that served as visual controls, and a fixation cross. Each 24-s-long block comprised only one image type and was followed by a 6-s period during which subjects were instructed to rate their urge for alcohol. Images were selected from a normative set, supplemented with images from advertisements, and matched for intensity, color, and complexity. This task consistently elicits robust cue-elicited VS activation among non-treatment-seeking AUD individuals.
Functional images were acquired with a gradient echo, echo-planar imaging sequence implemented on a 3T TIM Trio scanner (Siemens, Erlangen, Germany). Acquisition parameters were: repetition/echo times=2200/35 ms; 328 volumes; flip angle=90°; field of view=192 mm; matrix=64×64; voxel size=3.0×3.0 mm; 36 contiguous 3.0-mm-thick transverse slices. Using FEAT (fMRI Expert Analysis Tool) v. 6.00, part of FSL (FMRIB Software Library, University of Oxford, United Kingdom), functional images were realigned to the middle volume, spatially smoothed (8-mm full width at half maximum kernel), resampled to 2-mm isotropic voxels, and registered, first to the subject's high-resolution anatomical image and subsequently to the Montreal Neurological Institute (MNI; Montréal, Canada) 152-subject-average template. Based on previous data indicating an interaction between DAT1/SLC6A3 genotype and naltrexone on alcohol cue-elicited VS activation, the right VS was defined a priori as a 6-mm-radius sphere centered at the point [12 15 −6] in MNI space. For each subject, this sphere was reverse-registered from the MNI-152 image to the subject's anatomical image, and the average percentage change of the blood-oxygen-level-dependent signal between ALC and BEV blocks (i.e., ALC vs. BEV percent signal change) was extracted.
Statistical analysis. The general linear model (GLM; SPSS 23, IBM, Armonk, N.Y., United States of America) was used to test the interaction between medication and DAT1/SLC6A3 genotype on the primary outcomes (VS ALC vs. BEV activation and the number of drinks consumed in the bar lab). A model that included between-subjects factors for medication, DAT1/SLC6A3 genotype, and their interaction was tested for each outcome. Analyses first compared 9R carriers to 10R homozygotes, and subsequently examined the additive effect of the 9R allele. […] Significant interactions were followed up with simple effects contrasts. […]

[5] = test system: non-treatment-seeking AUD individuals; assay: Bar-lab paradigm (alcohol self-administration); format: in vivo, human; settings: for Bar Lab Drinks: effect size of interaction medication x genotype permutation: n = 94
Description: as §1, §2
Bar-lab paradigm. […] Thirty minutes later, they were provided a standard caloric lunch, adjusted for gender and weight. At 2:00 PM, subjects were administered a priming drink of their preferred 80-proof liquor in a 1:3 ratio with juice, adjusted for gender, age, and weight to produce a targeted BAC of 30 mg %, and instructed to consume it within five minutes. Forty minutes later, subjects were presented a tray of four drinks, each with a targeted BAC of 15 mg %, and told they could consume as many as they desired over the next hour. After an hour, this tray was removed and another tray of four drinks was made available for consumption over a second hour. To create a decisional balance between drinking and abstaining, subjects were given a “bar credit” of $16 with which to “purchase” drinks, at the cost of $2/drink. After the procedure, subjects were given dinner and remained until 10:00 PM. A BAC measurement below 20 mg % was required before departure, and a friend or taxi drove subjects home.
Statistical analysis. The general linear model (GLM; SPSS 23, IBM, Armonk, N.Y., United States of America) was used to test the interaction between medication and DAT1/SLC6A3 genotype on the primary outcomes (VS ALC vs. BEV activation and the number of drinks consumed in the bar lab). A model that included between-subjects factors for medication, DAT1/SLC6A3 genotype, and their interaction was tested for each outcome. Analyses first compared 9R carriers to 10R homozygotes, and subsequently examined the additive effect of the 9R allele. […] Significant interactions were followed up with simple effects contrasts. VS activation was also analyzed for correlation (Pearson's r) with day 7 OCDS scores and bar-lab drinking.
The GLM was also used to test the interaction between medication and a DA-related genetic composite on the primary outcomes. The DAT1/SLC6A3 9R, COMT met, DRD2 T, and DRD4 long alleles were categorized as higher-DA alleles, and the total number of alleles each subject carried was calculated (Table 2). Few subjects carried more than four higher-DA alleles (four subjects had five alleles and one had seven), so these subjects were combined with those who carried four, yielding five groups of subjects with zero (n=7), one (n=15), two (n=31), three (n=22), or four or more (n=18) alleles. A model that included between-subjects factors for medication, the additive effect of the number of higher-DA alleles, and their interaction was tested for each outcome.

[6] = test system: healthy adults; settings: relative to placebo; healthy adults who carried more higher-DA alleles; cited from earlier work
[7] = 9R carriers vs. 10R homozygotes, APZ vs. placebo
[8] = DAT1 (additive effect of 9R alleles), APZ reduced more with more alleles
[9] = DAT1 (additive effect of 9R alleles), APZ reduced more with more alleles, listed as aripiprazole
[10] = DAT1 + COMT + DRD2 + DRD4 (higher-DA alleles composite)

Q: For `O=C1CCc2ccc(OCCCCN3CCN(c4cccc(Cl)c4Cl)CC3)cc2N1` [APZ, aripiprazole], which Alcohol consumption biomarker [1] is on record?
A: The Alcohol consumption biomarker was “significantly improve”.

Q: And the “Drinks per drinking day” value [1]?
A: Its value is “significantly improve”.

Q: And the “Primary drinking outcome (percent days abstinent)” value [1]?
A: The value was “did not significantly change”.

Q: And the “Euphoric effects of alcohol drinking” value ([2]; natural environment or bar-lab setting)?
A: The value was “reduce”.

Q: And the “Alcohol cue-elicited VS activation” value ([2]; reported earlier)?
A: The value was “reduce”.

Q: What about the “Number of subjects with insomnia severity Mild” value ([3]; 9R carriers) of the same compound?
A: The value was 11.

Q: And the “Number of subjects with insomnia severity Moderate” value ([3]; 9R carriers)?
A: Its value is 6.

Q: What about the “Number of subjects with insomnia severity None” value ([3]; 9R carriers) of the same compound?
A: The value was 11.

Q: What about the “Number of subjects with insomnia severity Severe” value ([3]; 9R carriers) of the same compound?
A: Its value is 0.

Q: And the “Number of subjects with insomnia severity Mild” value ([3]; 10R homozygotes)?
A: Its value is 8.

Q: What about the “Number of subjects with insomnia severity Moderate” value ([3]; 10R homozygotes) of the same compound?
A: Its value is 4.

Q: What about the “Number of subjects with insomnia severity None” value ([3]; 10R homozygotes) of the same compound?
A: Its value is 2.

Q: What about the “Number of subjects with insomnia severity Severe” value ([3]; 10R homozygotes) of the same compound?
A: Its value is 4.

Q: And the “Frequency of insomnia, daytime sleepiness, irritability, trouble concentrating, nausea/vomiting, dizziness, fatigue, blurry vision, difficulty reaching orgasm” value ([3]; APZ group vs. placebo, p<0.05, day 8)?
A: Its value is “significantly more frequent”.

Q: And the Insomnia severity ([3]; APZ relative to placebo, DAT1/SLC6A3 9R carriers)?
A: Its Insomnia severity is “did not”.

Q: What about the Insomnia severity ([3]; APZ relative to placebo, DAT1/SLC6A3 10R homozygotes) of the same compound?
A: Its Insomnia severity is “more severe insomnia”.

Q: What about the Insomnia severity ([3]; among subjects who received APZ, with a greater number of higher-DA alleles) of the same compound?
A: Its Insomnia severity is “less severe”.

Q: What about the “Effect size (partial η2) of interaction medication x DAT1/SLC6A3 genotype on VS activation” value [4, 7] of the same compound?
A: Its value is 0.061.

Q: And the “Alcohol cue-elicited VS activation (ALC vs. BEV percent signal change)” value ([4]; DAT1/SLC6A3 9R carriers)?
A: Its value is “reduced VS activation”.

Q: And the “Alcohol cue-elicited VS activation (ALC vs. BEV percent signal change)” value ([4]; DAT1/SLC6A3 10R homozygotes)?
A: The value was “increased it”.

Q: What about the “VS Activation: effect size of interaction medication x genotype permutation” value (“VS Activation: effect size” for short) [4, 8] of the same compound?
A: The value was 0.067.

Q: And the “VS Activation: effect size” value [4, 9]?
A: The value was 0.063.

Q: What about the “VS Activation: effect size” value [4, 10] of the same compound?
A: Its value is 0.051.

Q: And the “VS Activation: effect size” value ([4]; DAT1 + COMT + DRD2)?
A: Its value is 0.026.

Q: And the “VS Activation: effect size” value ([4]; DAT1 + DRD2 + DRD4)?
A: The value was 0.084.

Q: What about the “VS Activation: effect size” value ([4]; DAT1 + DRD2) of the same compound?
A: The value was 0.068.

Q: And the “VS Activation: effect size” value ([4]; DAT1 + DRD4)?
A: The value was 0.077.

Q: And the “Effect size (partial η2) of interaction medication x DAT1/SLC6A3 genotype on bar-lab drinking” value [5, 7]?
A: Its value is 0.064.

Q: What about the “Bar-lab drinking (number of drinks consumed)” value ([5]; APZ relative to placebo, DAT1/SLC6A3 9R carriers, day 8) of the same compound?
A: Its value is “reduced drinking”.

Q: And the “Effect size (partial η2) of main effect of medication on bar-lab drinking” value ([5]; APZ vs. placebo, all subjects)?
A: The value was 0.049.

Q: And the “Bar Lab Drinks: effect size of interaction medication x genotype permutation” value (“Bar Lab Drinks: effect size” for short) [5, 8]?
A: The value was 0.068.

Q: And the “Bar Lab Drinks: effect size” value [5, 9]?
A: The value was 0.050.

Q: What about the “Bar Lab Drinks: effect size” value [5, 10] of the same compound?
A: The value was 0.069.

Q: And the “Bar Lab Drinks: effect size” value ([5]; DAT1 + COMT + DRD2)?
A: The value was 0.100.

Q: And the “Bar Lab Drinks: effect size” value ([5]; DAT1 + COMT + DRD4)?
A: Its value is 0.071.

Q: And the “Bar Lab Drinks: effect size” value ([5]; DAT1 + COMT)?
A: Its value is 0.079.

Q: And the “Bar Lab Drinks: effect size” value ([5]; DAT1 + DRD2 + DRD4)?
A: Its value is 0.072.

Q: And the “Bar Lab Drinks: effect size” value ([5]; DAT1 + DRD2)?
A: The value was 0.081.

Q: And the “Bar Lab Drinks: effect size” value ([5]; DAT1 + DRD4)?
A: The value was 0.045.

Q: And the “Effect size (partial η2) of simple effect of medication on bar-lab drinking” value ([5]; among DAT1/SLC6A3 9R carriers, APZ vs. placebo)?
A: The value was 0.12.

Q: What about the “Effect size (partial η2) of simple effect of medication on bar-lab drinking” value ([5]; among subjects with four or more higher-DA alleles, APZ vs. placebo) of the same compound?
A: The value was 0.15.

Q: For `CCCN(CCC)CCc1cccc2c1CC(=O)N2` [ropinirole], which Impulsive decisions [6] is on record?
A: Its Impulsive decisions is “increased impulsive decisions”.
